Experimental data published in patent US8648198B2, “Phenylethanolamine-based NMDA receptor antagonists” (priority 2011, dated 2014).
Like-named read-outs stand apart in the source and are kept apart here.

Assays:
[1] = molecular target: T1, GluN1-1b (WT)/GluN2B (I111M) (Rattus norvegicus, UniProt P35439+Q00960, I111M); assay: Ifenprodil dose-response, recordings from Xenopus oocytes; type: cell-based; settings: mean ± s.d.
T1 construct: expressed in transfected cells; host or cells: Xenopus oocytes (per the earlier reading)

[2] = molecular target: T2, GluN1-1a (WT)/GluN2B (WT) (Rattus norvegicus, UniProt P35439+Q00960); assay: as above; type: cell-based; settings: mean ± s.d.
T2 construct: expressed in transfected cells; host or cells: Xenopus oocytes (per the earlier reading)

[3] = tested on: GluN2B ATD; assay: Isothermal titration calorimetry (ITC), GluN2B ATD alone; type: binding, Rattus Norvegicus; settings: GluN2B ATD individually injected with ifenprodil
[4] = molecular target: T3, GluN1-1b (WT)/GluN2B (I111S) (Rattus norvegicus, UniProt P35439+Q00960, I111S); assay: Ifenprodil dose-response, recordings from Xenopus oocytes; type: cell-based; settings: mean ± s.d.
T3 construct: expressed in transfected cells; host or cells: Xenopus oocytes (per the earlier reading)

[5] = molecular target: T4, GluN1-4b (Asn70Cys)/GluN2B (Thr324Cys) (Rattus norvegicus, UniProt P35439+Q00960, N70C/T324C); assay: Ion channel activity of cysteine mutant receptors by TEVC (R1-R1 cross-link); type: cell-based
T4 construct: expressed in transfected cells
From the text: (§1) To further validate the physiological relevance of the hetero-dimeric assembly, cysteine mutants at the subunit interface were engineered using the ifenprodil-bound GluN1b/GluN2B ATD structure as a guide in a context of the intact rat GluN1-4b/GluN2B receptors so that they would form spontaneous disulphide bonds if the mutated residues are proximal to each others. Toward this end, two pairs of cysteine mutants, GluN1-4b (Asn70Cys)/GluN2B (Thr324Cys) and GluN1-4b (Leu341Cys)/GluN2B (Asp210Cys) were designed, which “locked” the R1-R1 and R1-R2 interfaces, respectively FIG. 12a-b). The mutant receptors were then expressed in a mammalian cell culture, and analyzed for formation of disulphide-linked oligomers in western blots. When mutant receptors of one subunit were expressed with wild-type receptors of the other, they gave rise to monomeric bands (110 KDa and 170 KDa for GluN1-4b and GluN2B, respectively; arrow 2 and 3) identical to the wild-type GluN1-4b/GluN2B receptors in both reducing and non-reducing condition. […]
(§2) To understand the functional effects of “locking” the R1-R1 and R1-R2 interactions in the GluN1b/GluN2B ATDs, the ion channel activities of the cysteine mutant receptors were measured by TEVC. […]

[6] = molecular target: T5, GluN1-1b (WT)/GluN2B (I82S) (Rattus norvegicus, UniProt P35439+Q00960, I82S); assay: Ifenprodil dose-response, recordings from Xenopus oocytes; type: cell-based; settings: mean ± s.d.
T5 construct: expressed in transfected cells; host or cells: Xenopus oocytes (per the earlier reading)

[7] = molecular target: T6, GluN1/GluN2A receptors, GluN2A Met112Ile (Rattus norvegicus, UniProt P35439+Q00959, M112I); assay: Ifenprodil sensitivity of mutant GluN1/GluN2A receptors; type: cell-based; settings: GluN2A Met112Ile in GluN1/GluN2A receptors
T6 construct: expressed in transfected cells
From the text: Thus, the insensitivity of the GluN1/GluN2A receptors to phenylethanolamine may stem from a fundamental difference in a mode of subunit association between GluN1/GluN2A and GluN1/GluN2B at ATD.

[8] = molecular target: T7, GluN1-1b (A75Q)/GluN2B (WT) (Rattus norvegicus, UniProt P35439+Q00960, A75Q); assay: Ifenprodil dose-response, recordings from Xenopus oocytes; type: cell-based; settings: mean ± s.d.
T7 construct: expressed in transfected cells; host or cells: Xenopus oocytes (per the earlier reading)

[9] = molecular target: T8, GluN1-1b (WT)/GluN2B (WT) (Rattus norvegicus, UniProt P35439+Q00960); assay: as above; type: cell-based; settings: mean ± s.d.
T8 construct: expressed in transfected cells; host or cells: Xenopus oocytes (per the earlier reading)

[10] = molecular target: mixture of the GluN1b and GluN2B ATD proteins (Xenopus laevis (GluN1-4b ATD) / Rattus norvegicus (GluN2B ATD), UniProt A0A1L8F5J9+Q00960, E186G/INS190SKKRNYENLDQLSYDNKRGPK/N350Q/N61Q); assay: Isothermal titration calorimetry (ITC), direct binding to mixed ATD proteins; parameters: species or system Xenopus laevis GluN1-4b / Rattus Norvegicus GluN2B
[11] = molecular target: T9, GluN1-1b (WT)/GluN2B (Q110A) (Rattus norvegicus, UniProt P35439+Q00960, Q110A); assay: Ifenprodil dose-response, recordings from Xenopus oocytes; type: cell-based; settings: mean ± s.d.
T9 construct: expressed in transfected cells; host or cells: Xenopus oocytes (per the earlier reading)

[12] = molecular target: T10, GluN1-1b (L135N)/GluN2B (WT) (Rattus norvegicus, UniProt P35439+Q00960, L135N); assay: as above; type: cell-based; settings: mean ± s.d.
T10 construct: expressed in transfected cells; host or cells: Xenopus oocytes (per the earlier reading)

[13] = tested on: GluN1b ATD; assay: Isothermal titration calorimetry (ITC), GluN1b ATD alone; type: binding, Xenopus laevis; settings: GluN1b ATD individually injected with ifenprodil
[14] = molecular target: T11, GluN1-1b (F113S)/GluN2B (WT) (Rattus norvegicus, UniProt P35439+Q00960, F113S); assay: Ifenprodil dose-response, recordings from Xenopus oocytes; type: cell-based; settings: mean ± s.d.
T11 construct: expressed in transfected cells; host or cells: Xenopus oocytes (per the earlier reading)

[15] = molecular target: T12, GluN1-4b (Leu341Cys)/GluN2B (Asp210Cys) (Rattus norvegicus, UniProt P35439+Q00960); assay: Ion channel activity of cysteine mutant receptors by TEVC (R1-R2 cross-link); type: cell-based; settings: R1-R2 cross-link, non-reducing, even at 3 μM ifenprodil
T12 construct: expressed in transfected cells
From the text: as §1, §2

[16] = molecular target: T13, GluN1-4b (Leu341Cys)/GluN2B (Asp210Cys) (Rattus norvegicus, UniProt P35439+Q00960, D210C/L320C); assay: as above; type: cell-based; settings: R1-R2 cross-link broken by application of DTT
T13 construct: expressed in transfected cells
From the text: as §1, §2

Sequence of mixture of the GluN1b and GluN2B ATD proteins (Q00960 31-394, stated change not applied, other chains not shown): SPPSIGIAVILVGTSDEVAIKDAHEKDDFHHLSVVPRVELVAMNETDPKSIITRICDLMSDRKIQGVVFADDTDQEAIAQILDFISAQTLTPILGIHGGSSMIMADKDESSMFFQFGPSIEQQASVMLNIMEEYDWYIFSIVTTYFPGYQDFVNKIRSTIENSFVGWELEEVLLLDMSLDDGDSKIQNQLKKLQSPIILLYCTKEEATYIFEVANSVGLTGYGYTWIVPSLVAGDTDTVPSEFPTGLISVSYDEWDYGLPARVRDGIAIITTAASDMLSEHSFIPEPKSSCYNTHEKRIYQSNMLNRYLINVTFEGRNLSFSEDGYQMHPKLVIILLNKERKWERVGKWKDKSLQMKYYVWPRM
T6 sequence (Q00959 23-1464 M112I, other chains not shown): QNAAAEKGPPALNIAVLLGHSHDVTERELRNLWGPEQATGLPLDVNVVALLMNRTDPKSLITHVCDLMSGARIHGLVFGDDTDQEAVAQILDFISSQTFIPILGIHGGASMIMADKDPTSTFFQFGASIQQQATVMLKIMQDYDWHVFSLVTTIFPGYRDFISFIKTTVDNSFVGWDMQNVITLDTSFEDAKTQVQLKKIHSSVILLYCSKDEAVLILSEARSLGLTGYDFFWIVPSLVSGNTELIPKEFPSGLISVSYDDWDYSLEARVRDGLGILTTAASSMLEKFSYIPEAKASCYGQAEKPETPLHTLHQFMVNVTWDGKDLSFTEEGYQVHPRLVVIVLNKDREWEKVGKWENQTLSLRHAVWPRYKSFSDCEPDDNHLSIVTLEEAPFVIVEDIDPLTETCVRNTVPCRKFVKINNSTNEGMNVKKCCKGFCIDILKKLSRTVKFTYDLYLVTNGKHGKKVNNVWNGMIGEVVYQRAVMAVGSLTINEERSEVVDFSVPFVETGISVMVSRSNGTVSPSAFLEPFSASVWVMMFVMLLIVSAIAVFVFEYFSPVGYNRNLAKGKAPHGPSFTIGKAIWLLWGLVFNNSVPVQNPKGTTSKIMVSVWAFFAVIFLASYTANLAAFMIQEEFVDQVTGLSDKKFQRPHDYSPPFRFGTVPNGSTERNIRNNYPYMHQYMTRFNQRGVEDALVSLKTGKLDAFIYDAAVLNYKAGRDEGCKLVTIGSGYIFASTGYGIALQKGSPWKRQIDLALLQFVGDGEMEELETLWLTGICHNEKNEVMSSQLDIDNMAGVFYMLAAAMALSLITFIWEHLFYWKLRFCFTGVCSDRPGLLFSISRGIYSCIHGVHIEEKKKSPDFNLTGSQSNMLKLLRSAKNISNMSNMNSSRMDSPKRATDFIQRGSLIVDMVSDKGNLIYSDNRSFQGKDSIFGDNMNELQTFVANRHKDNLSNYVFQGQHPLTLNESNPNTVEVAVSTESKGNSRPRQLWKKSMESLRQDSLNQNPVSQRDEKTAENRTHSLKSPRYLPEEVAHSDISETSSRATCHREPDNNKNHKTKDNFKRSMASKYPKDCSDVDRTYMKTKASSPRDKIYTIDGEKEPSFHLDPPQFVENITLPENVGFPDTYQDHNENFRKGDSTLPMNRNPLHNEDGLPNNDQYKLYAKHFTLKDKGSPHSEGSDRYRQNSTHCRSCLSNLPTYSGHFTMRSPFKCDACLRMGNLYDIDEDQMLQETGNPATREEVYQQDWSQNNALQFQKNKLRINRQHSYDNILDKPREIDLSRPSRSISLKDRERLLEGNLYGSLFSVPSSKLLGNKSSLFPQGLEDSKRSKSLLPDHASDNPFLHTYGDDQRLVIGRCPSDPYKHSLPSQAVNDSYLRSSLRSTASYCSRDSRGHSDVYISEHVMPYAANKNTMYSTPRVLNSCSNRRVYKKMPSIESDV
T7 sequence (Q00960 27-1482, other chains not shown): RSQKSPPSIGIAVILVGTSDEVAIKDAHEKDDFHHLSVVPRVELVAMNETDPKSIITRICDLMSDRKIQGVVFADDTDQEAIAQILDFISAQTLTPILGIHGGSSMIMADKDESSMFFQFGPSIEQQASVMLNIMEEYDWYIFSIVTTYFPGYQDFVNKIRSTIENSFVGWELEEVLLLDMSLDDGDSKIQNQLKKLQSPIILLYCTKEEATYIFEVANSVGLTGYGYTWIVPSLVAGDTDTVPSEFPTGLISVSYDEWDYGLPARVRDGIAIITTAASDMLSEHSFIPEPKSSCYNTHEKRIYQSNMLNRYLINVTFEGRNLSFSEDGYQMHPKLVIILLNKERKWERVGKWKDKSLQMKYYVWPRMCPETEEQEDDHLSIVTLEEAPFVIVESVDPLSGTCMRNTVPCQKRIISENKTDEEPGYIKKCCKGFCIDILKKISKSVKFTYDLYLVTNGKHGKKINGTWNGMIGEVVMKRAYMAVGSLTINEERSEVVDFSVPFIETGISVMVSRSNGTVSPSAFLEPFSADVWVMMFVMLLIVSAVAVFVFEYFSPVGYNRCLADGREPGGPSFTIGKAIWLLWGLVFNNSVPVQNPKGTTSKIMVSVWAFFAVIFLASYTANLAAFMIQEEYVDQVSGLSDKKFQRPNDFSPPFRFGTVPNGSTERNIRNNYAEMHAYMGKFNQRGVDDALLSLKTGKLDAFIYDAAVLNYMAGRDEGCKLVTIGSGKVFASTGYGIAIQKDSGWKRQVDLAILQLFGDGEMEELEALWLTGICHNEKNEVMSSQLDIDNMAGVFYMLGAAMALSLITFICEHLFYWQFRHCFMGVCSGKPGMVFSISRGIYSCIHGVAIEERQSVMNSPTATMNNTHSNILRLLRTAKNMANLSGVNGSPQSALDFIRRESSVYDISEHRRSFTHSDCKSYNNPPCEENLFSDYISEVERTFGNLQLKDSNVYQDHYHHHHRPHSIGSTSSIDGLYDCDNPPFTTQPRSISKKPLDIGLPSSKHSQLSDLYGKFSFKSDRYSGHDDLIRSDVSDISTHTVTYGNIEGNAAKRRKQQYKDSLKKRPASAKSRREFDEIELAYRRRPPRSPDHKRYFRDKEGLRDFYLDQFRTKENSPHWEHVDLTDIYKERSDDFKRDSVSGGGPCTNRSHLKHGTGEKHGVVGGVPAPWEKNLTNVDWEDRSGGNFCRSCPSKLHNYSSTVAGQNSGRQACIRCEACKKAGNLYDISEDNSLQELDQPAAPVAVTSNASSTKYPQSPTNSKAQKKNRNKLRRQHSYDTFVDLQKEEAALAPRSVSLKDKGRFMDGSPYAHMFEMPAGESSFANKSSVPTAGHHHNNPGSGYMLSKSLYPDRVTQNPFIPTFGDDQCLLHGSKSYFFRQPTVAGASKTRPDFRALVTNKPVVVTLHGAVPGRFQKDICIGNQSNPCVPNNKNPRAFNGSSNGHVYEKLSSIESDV
T11 sequence (Q00960 27-1482, other chains not shown): as above

C[C@@H]([C@H](O)c1ccc(O)cc1)N1CCC(Cc2ccccc2)CC1 (racemic) [ifenprodil]
% inhibition [1]: 93.0 ± 2.2% | % inhibition [2]: 95.0 ± 2.5% | binding (heat) by ITC [3]: no evidence of binding | % inhibition [4]: 69.3 ± 2.6% | effect of the disulphide bond on ifenprodil sensitivity [5]: only a minor effect | % inhibition [6]: 55.7 ± 0.7% | ifenprodil sensitivity [7]: did not confer | % inhibition [8]: 82.1 ± 1.4% | % inhibition [9]: 95.2 ± 2.0% | Kd [10]: 320 nM | % inhibition [11]: 91.5 ± 2.2% | % inhibition [12]: 90.0 ± 3.7% | binding (heat) by ITC [13]: no evidence of binding | % inhibition [14]: 87.7 ± 1.4% | ifenprodil inhibition [15]: almost completely abolished | ifenprodil sensitivity after breaking the disulphide cross-link [16]: regain sensitivity to ifenprodil

C[C@@H](CN1CCC(Cc2ccccc2)CC1)[C@@H](O)c1ccc(O)cc1 [Ro 25-6981]
Kd ([10]; ITC, mixture of GluN1b and GluN2B ATD proteins, read-out: Kd): 60 nM
